Measured values published in the NIST ThermoML archive (doi:10.1021/je900515a).

Key:
[1] = Liquid, Pycnometric method
[2] = molar heat capacity at constant pressure; conditions: Liquid, Thermal relaxation method

C=C(F)C(F)(F)F [2,3,3,3-tetrafluoro-1-propene]
Conditions | mass density, [1] [kg/m3] | molar heat capacity at constant pressure, [2] [J/K/mol]
310 K, 1000 kPa | 1046.5 | –
310 K, 2000 kPa | 1056.3 | 165.36
310 K, 3000 kPa | 1065.2 | 161.94
310 K, 4000 kPa | 1072.8 | 152.82
310 K, 5000 kPa | 1080.6 | 153.96
320 K, 2000 kPa | 1013.8 | 173.34
320 K, 3000 kPa | 1025.1 | 167.64
320 K, 4000 kPa | 1035.3 | 160.8
320 K, 5000 kPa | 1044.8 | 157.38
330 K, 2000 kPa | 964.2 | 185.89
330 K, 3000 kPa | 979.2 | 179.05
330 K, 4000 kPa | 992.7 | 168.78
330 K, 5000 kPa | 1004.6 | 163.08
340 K, 2000 kPa | 903 | 205.27
340 K, 3000 kPa | 926.7 | 187.03
340 K, 4000 kPa | 945.3 | 177.9
340 K, 5000 kPa | 961.3 | 169.92
350 K, 3000 kPa | 861.8 | 217.82
350 K, 4000 kPa | 891.3 | 196.15
350 K, 5000 kPa | 913.1 | 182.47
360 K, 3000 kPa | 751.9 | 297.65
360 K, 4000 kPa | 818.5 | 222.38
360 K, 5000 kPa | 853.9 | 197.29
